Bounds are passed on as bounds.

The text below walks through data of US11396493B2, “Amorphous pyrrolidine derivative as PPAR agonist and preparation method thereof” (GUANGDONG RAYNOVENT BIOTECH CO., LTD., priority 2017, dated 2022).

Holding throughout (type): cell-based
One assay deals with T1, PPAR Delta (Homo sapiens, UniProt Q03181).
T1 sequence (Q03181 1-441): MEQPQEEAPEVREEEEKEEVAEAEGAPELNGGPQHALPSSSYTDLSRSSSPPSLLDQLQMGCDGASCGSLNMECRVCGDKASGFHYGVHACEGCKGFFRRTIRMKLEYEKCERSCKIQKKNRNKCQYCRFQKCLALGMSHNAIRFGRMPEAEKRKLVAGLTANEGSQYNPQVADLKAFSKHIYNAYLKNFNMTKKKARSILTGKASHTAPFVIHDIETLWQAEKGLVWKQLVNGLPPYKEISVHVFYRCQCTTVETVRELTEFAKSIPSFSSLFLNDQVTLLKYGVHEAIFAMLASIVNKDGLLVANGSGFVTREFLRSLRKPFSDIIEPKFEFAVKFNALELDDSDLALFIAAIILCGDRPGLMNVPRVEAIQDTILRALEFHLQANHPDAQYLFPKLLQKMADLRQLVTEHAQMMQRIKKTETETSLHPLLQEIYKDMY
Briefly: PathHunter NHR protein interaction test, agonist mode, PPAR Delta. An excerpt:
(§1) Principles of in Vitro Test of PPAR Agonist Activity
(§2) Nuclear Hormone Receptor (NHR) Test
(§3) PathHunter's NHR protein interaction and nuclear transfer test are used to detect the activation ability of nuclear hormone receptor in a uniform, non-imaging experiment. This technology is called as enzyme fragment complementation […], and is developed by DiscoverX.
(§4) NHR protein test is based on the detection of the protein-protein interaction between a standard length of NHR protein in an activated state and a nuclear fusion protein containing a steroid receptor co-activating peptide (SRCP) region and one or more standard LXXLL acting sequences.
(§5) NHR is labeled on the ProLink™ component of an EFC test system, and the SRCP region and the enzyme receptor component (EA) are fused and expressed in the nucleus. When bound to the ligand, the NHR will transfer to the nucleus and obtain the SRCP region in which a complementary effect is produced, thereby generating an equivalent amount of activated-galactosidase (-Gal), accompanied by the generation of chemical light signals. The benefits associated with this pathway include reduced incubation time of the compound, direct test of an NHR target, use of human NHR sequences with a standard length, and selection of some new classes of compounds based on the disruption of protein-protein interactions.
(§6) The NHR NT test detected the transfer of an NHR between the cytoplasmic and nuclear compartments. The receptor was labeled on the ProLink™ component of the EFC test system, while the EA and nuclear sequence were fused, thereby limiting the expression of EA on the nucleus. Nucleus transfer leaded to the complementary effect with EA, thereby generating one equivalent of activated galactosidase (-Gal), accompanied by the generation of chemical light signals.
(§7) 1. PathHunter NHR cell strains were spread from a frozen stock in accordance with standard operations.
(§8) 2. Cells were seeded onto a 384-well white cell plate of 20 uL/well, and incubated at 37° C. for an appropriate time prior to test. The culture medium contained activated carbon dextran with filtered serum to reduce the level of hormone expression.
(§9) Experiments of Agonist Mode:
(§10) 1. As for the measurement of an agonist activity, it is required to incubate the cells with the compound to induce a response.
2. […]
(§11) 2. The chemiluminescence signals generated by the microplate were to be detected by a PerkinElmer Envision instrument.
(§12) 1. The activity of the compound was analyzed by CIBS data analysis software (ChemInnovation, CA).
(§13) 2. For experiments of agonist mode, the percentage activity is calculated by the following formula: % activity=100%×(the mean RLU of the compound to be tested−the mean background RLU of the medium)/(the mean of maximum control of the ligand−the mean background RLU of the medium)

Another assay deals with T2, PPAR Alpha (Homo sapiens, UniProt Q07869).
T2 sequence (Q07869 1-468): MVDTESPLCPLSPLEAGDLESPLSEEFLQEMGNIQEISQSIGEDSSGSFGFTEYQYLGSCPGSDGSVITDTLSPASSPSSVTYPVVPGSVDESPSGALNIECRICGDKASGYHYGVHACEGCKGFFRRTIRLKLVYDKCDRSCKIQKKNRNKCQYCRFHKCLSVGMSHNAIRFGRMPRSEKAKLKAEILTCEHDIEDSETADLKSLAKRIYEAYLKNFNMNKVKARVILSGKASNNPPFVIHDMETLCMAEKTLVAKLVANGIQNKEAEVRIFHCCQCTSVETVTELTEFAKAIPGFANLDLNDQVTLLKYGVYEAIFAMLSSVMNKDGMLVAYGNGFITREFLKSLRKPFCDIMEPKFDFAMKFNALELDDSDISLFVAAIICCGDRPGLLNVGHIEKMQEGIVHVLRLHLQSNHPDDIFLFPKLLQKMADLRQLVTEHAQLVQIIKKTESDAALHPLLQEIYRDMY
Briefly: PathHunter NHR protein interaction test, agonist mode, PPAR Alpha.
Excerpt: as §1, §2, §3, §4, §5, §6, §7, §8, §9, §10
2. […]
as §11, §12, §13

For a further assay, the target named is T3, PPAR Gamma (Homo sapiens, UniProt P37231).
T3 sequence (P37231 1-505): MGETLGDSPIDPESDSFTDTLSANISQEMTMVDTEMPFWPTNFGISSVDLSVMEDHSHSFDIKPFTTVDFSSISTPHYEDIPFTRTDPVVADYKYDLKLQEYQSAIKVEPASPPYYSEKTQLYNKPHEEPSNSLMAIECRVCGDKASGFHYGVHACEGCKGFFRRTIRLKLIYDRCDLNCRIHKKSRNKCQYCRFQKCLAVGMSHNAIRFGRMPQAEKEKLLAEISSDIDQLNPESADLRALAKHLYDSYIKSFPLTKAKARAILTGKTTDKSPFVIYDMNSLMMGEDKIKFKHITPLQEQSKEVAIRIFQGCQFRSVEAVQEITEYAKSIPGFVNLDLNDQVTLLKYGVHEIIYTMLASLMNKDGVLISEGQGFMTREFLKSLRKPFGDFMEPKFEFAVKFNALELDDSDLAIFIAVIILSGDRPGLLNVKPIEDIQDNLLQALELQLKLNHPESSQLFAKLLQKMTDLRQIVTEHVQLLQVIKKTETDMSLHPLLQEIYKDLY
Briefly: PathHunter NHR protein interaction test, agonist mode, PPAR Gamma. As to conditions: agonist mode.
Excerpt: as §1, §2, §3, §4, §5
The NHR NT test detected the transfer of an NHR between the cytoplasmic and nuclear compartments. […]
as §11, §12, §13

Turning to `CCCc1c(OCCCOc2ccc(OCC(=O)O)cc2)ccc(C(C)=O)c1O` [L-165,041, reference compound], the EC50 (usually the concentration at which the effect is half-maximal) on PPAR Delta (agonist mode) is less than 100 nM. Moreover, the “PPAR Delta Maximum stimulus-response value” at PPAR Delta (reference agonist, set as 100%) is reported as 100%.

As to `CC(C)(Sc1ccc(CCN(CCCCC2CCCCC2)C(=O)NC2CCCCC2)cc1)C(=O)O` [GW7647, reference compound], the “PPAR Alpha Maximum stimulus-response value” at PPAR Alpha (reference agonist, set as 100%) came out at 100%.

Consider `CSc1ccc(C(=O)/C=C/c2cc(C)c(OC(C)(C)C(=O)O)c(C)c2)cc1` [GFT-505, Elafibranor, reference compound], for which the half-maximal effective concentration (EC50) on PPAR Alpha (agonist mode) and at PPAR Gamma was greater than 250 nM throughout.
